Legend:
CHLA-55 cells = assay: Re-challenge cytotoxicity assay, GD2.CAR T cells; assay type: cell-based, human; settings: after double tumor-challenge, n=3
Experimental: Primary T cells were activated as described (Example 3), transduced with a lentivirus encoding for either a CD19.CAR or a GD2.CAR co-expressing shUSP16 #1, shUSP16 #2 or a scrambled shRNA (Control). Cells were cultured in IL-2 and sorted between days 6-13 for EGFRt. At day 16 cytotoxicity assays were performed. Briefly, cells were counted and 100,000 T cells (adjusted for EGFR expression) were plated at 1:5 Effector:Target (E:T) ratio. At 72 hours, the mixture of tumor cells and T cells were collected, stained for CD3-PE, CD8-BV510, CD19- or GD2-APC, EGFR-AF488 and Sytox and counted by flow cytometry (MACSQuant, Miltenyi Biotec) (FIGS. 30A and 30B). Counting beads (CountBright Absolute Counting beads, Invitrogen) were added before acquisition and absolute number was calculated as following (number of cell events/number of bead events)×(assigned bead count of the lot (beads/50 ul)/volume of sample (ul))=concentration of sample as cells/ul). NALM cells were used as target cells for CD19.CAR T cells and CHLA-55 cells were used as target for GD2.CAR T cells. Three different primary T cell cultures were tested for CD19 and GD2 CAR.
At day 16, regular cytotoxicity assays were also performed (Example 22). Three days post-antigen stimulation, CD19.CAR T cells were stained for EGFR-AF488 (R&D), CD3-PE, CD8-BV510, PD-1-Allophycocyanin and Lag-3 and CTLA4 (Biolegend) and acquired by MACSQuant (Miltenyi Biotec). The co-cultures we also re-challenged with the addition of fresh tumor cells. T cell killing and expansion upon double tumor-challenge was assessed after three days.

USP16 = assay: qPCR of USP16 expression; assay type: cell-based, human; settings: for downregulation of USP16 (Ctrl vs shRNA): primary T cells, day 15
Excerpt: A new set of shRNAs were cloned into the pSIH backbone, where the shRNA expression is driven by the H1 promoter. The vector was also engineered to co-express GFP and Puromycin resistance through a T2A sequence. The new shRNA sequences were: shUSP16 #1 5′-[…]-3′ (SEQ ID NO: 8) and shUSP16 #2 5′-[…]-3′ (SEQ ID NO: 9). Primary T cells were activated as described (Example 3), transduced with a lentivirus encoding either a shUSP16 #1, shUSP16 #2 or a scrambled shRNA (Control) and cells were selected with puromycin at day 6. Between 1 and 1.25×10^6 cells were plated post-puromycin selection with a purity higher than 90% and counted every 2-4 days by Trypan Blue exclusion using Vi-CELL XR cell counter (Beckman Coulter). qPCR was performed to verify downregulation of USP16 expression (FIG. 14A) and the expression of the senescent marker CDKN1A (FIG. 14B) at day 15. Proliferation was measured as fold increased compared to shControl at day 15 post-activation. The experiment was repeated using primary T cells obtained from buffy coats of 3 different healthy donors.
Primary T cells were activated as described (Example 3). At Day 6 post-activation, dynabeads were removed and T cells electroporated using the Neon Transfection System (ThermoFisher) with a 2.5:1 ratio sgRNA:Cas9. The experiment was performed following the protocol optimized for primary T cell by Synthego (CRISPR Editing Human Primary CD4+ T cells with RNPs using Neon Electroporation Protocol, 2018 version). The sgRNA used are the following: gUSP16 #1 5′-[…]-3′ (SEQ ID NO: 10) and gSynthego that comprises 3 different sgRNAs (gRNA-A: 5′-[…] 3′ (SEQ ID NO: 11); gRNA-B: 5′-[…]-3′ (SEQ ID NO: 12); gRNA-C: 5′-[…]-3′ (SEQ ID NO: 13)). Control T cells, identified as Mock, were electroporated but no Cas9:sgRNA mixture was added. […] At day 15 post-activation, cells were stained for CD4-PE, CD8-BV510, CD62L-Allophycocyanin and CD45RA-APC-Cy7 (Biolegend). Stem cell memory T cells (Tscm) were identified as Sytox^−GFP^+CD45RA^+CD62L^+ and graphed as ratio compared to mock cells (FIG. 22). The experiment was repeated using primary T cells obtained from buffy coats of 2 different healthy donors.
Primary T cells were activated as described (Example 3), transduced with a lentivirus encoding for either a CD19.CAR or a GD2.CAR co-expressing shUSP16 #1, shUSP16 #2 or a scrambled shRNA (Control). Cells were cultured in IL-2 and sorted between days 6-13 for EGFRt. Cells were plated post-sorting with a purity higher than 85% and counted every 2-4 days by Trypan Blue exclusion using Vi-CELL XR cell counter. Fifteen days post-activation both CD19.CAR and GD2.CAR T cells were collected, and qPCR was performed to verify downregulation of USP16 expression (FIG. 24) (fold change GD2.CAR (n=3): Control vs shUSP #1: 0.35, p<0.0001, and Control vs shUSP16 #2: 0.2452, p<0.0001, fold change CD19.CAR (n=4): Control vs shUSP #1: 0.2891, p<0.0001, and Control vs shUSP16 #2: 0.2566, p<0.0001). Proliferation was measured as fold increase compared to control cells at day 15 (FIG. 25).

Row | Substance | CHLA-55 residual cells (CHLA-55 cells) | T cell number (CHLA-55 cells) | USP16 expression, fold change vs Control (USP16; CD19.CAR T cells, day 15, n=4) | USP16 expression, fold change vs Control (USP16; GD2.CAR T cells, day 15, n=3) | downregulation of USP16 (Ctrl vs shRNA) (USP16)
1 | shUSP16 #1: shRNA targeting USP16, 5′-GACTGTAAGACTGACAATAAA-3′ (SEQ ID NO: 8), pSIH backbone or co-expressed in CAR plasmid | 436500 | 404709 | 0.2891 | 0.35 | 56%
2 | shUSP16 #2: shRNA targeting USP16, 5′-TATATCAGTTCACCCGTAAT-3′ (SEQ ID NO: 9), pSIH backbone or co-expressed in CAR plasmid | 330610 | 722634 | 0.2566 | 0.2452 | 53%

Source: patent US20210290680A1, “METHODS AND COMPOSITIONS FOR MODULATING CELLULAR AGING” (Dorian Therapeutics, Inc., priority 2019, published 2021)
